Experimental data as given in patent US6495133B1, “Gliocladium roseum strains useful for the control of fungal pathogens in plants” (priority 1998, dated 2002).

Key:
[1] = test system: Rhizoctonia solani; test: Control of rhizoctonia root rot, growth room experiments; type: in vivo
[2] = test system: Aphanomyces euteiches; test: Control of aphanomyces root rot in field pea, field experiments; type: in vivo
[3] = test system: Mycosphaerella pinodes; test: Control of mycosphaerella seedling blight/root rot in field pea, growth room experiments; conditions: Field pea (cv. Radley)
Procedure: (§1) In growth room experiments, seeds were planted in wood planting flats (35.5×47.0×9.0 cm) containing soil mixture of 2:1:1 of soil, perlite and peat moss. The soil mixture was pasteurized and mixed at about 2% v/v with artificially infested vermiculite that was moistened with 0.4% malt extract, autoclaved, inoculated with B. solani, and incubated at 20° C. for 7 days prior to the planting. […] For each treatment 100 seeds were planted in each of the 4-replicate flats. The planted flats were placed in a growth room maintained at 20° C. and with a 14-h photoperiod at 350 mol.m^−2.s^−1 light intensity by fluorescent and incandescent lamps. All experiments were arranged in a completely randomized block design. Emergence was counted 7 days after planting and other parameters were assessed after digging out plants 14 to 16 days after planting. Disease severity was rated on a scale of 0 (no visible lesions on lower stem and roots, seedling is well developed) to 9 (death of plant, the seedling died back quickly after emergence).

[4] = test system: Sclerotinia sclerotiorum; test: Control of sclerotinia rot in field pea, growth room experiments
Procedure: as §1
The seed treatment procedures, inoculum preparation, inoculation and assessment methods for both growth room and field experiments were the same as described above.

[5] = Brussel Sprouts (cv. Long Island)
[6] = Cauliflower (cv. Early Snowball)
[7] = Egg Plant (cv. Early Long Purple)

SMILES: CN(C)C(=S)SSC(=S)N(C)C [Thiram, thiram]
- Dry wt. ([1]; Broccoli (cv. Green Sprouting)): 0.01 a g/plant
- Emergence ([1]; Broccoli (cv. Green Sprouting)): 34.0 a %
- Fresh wt. ([1]; Broccoli (cv. Green Sprouting)): 0.1 a g/plant
- Root/foot rot severity ([1]; Broccoli (cv. Green Sprouting)): 5.1 ab 0-9
- Dry wt. [1, 5]: 0.02 a g/plant
- Emergence [1, 5]: 19.5 b %
- Fresh wt. [1, 5]: 0.2 ab g/plant
- Root/foot rot severity [1, 5]: 2.8 a 0-9
- Dry wt. ([1]; Cabbage (cv. Golden Acre)): 0.01 a g/plant
- Emergence ([1]; Cabbage (cv. Golden Acre)): 59.5 a %
- Fresh wt. ([1]; Cabbage (cv. Golden Acre)): 0.2 a g/plant
- Root/foot rot severity ([1]; Cabbage (cv. Golden Acre)): 2.9 b 0-9
- Dry wt. [1, 6]: 0.01 a g/plant
- Emergence [1, 6]: 11.5 b %
- Fresh wt. [1, 6]: 0.1 a g/plant
- Root/foot rot severity [1, 6]: 4.0 a 0-9
- Dry wt. ([1]; Cucumber (cv. Imp. Long Green)): 0.06 a g/plant
- Emergence ([1]; Cucumber (cv. Imp. Long Green)): 49.0 b %
- Fresh wt. ([1]; Cucumber (cv. Imp. Long Green)): 0.5 a g/plant
- Root/foot rot severity ([1]; Cucumber (cv. Imp. Long Green)): 2.2 b 0-9
- Dry wt. [1, 7]: 0.01 a g/plant
- Emergence [1, 7]: 79.3 a %
- Fresh wt. [1, 7]: 0.1 a g/plant
- Root/foot rot severity [1, 7]: 1.9 a 0-9
- Dry wt. ([1]; Field pea (cv. Radley)): 0.27 a g/plant
- Emergence ([1]; Field pea (cv. Radley)): 55.6 a %
- Fresh wt. ([1]; Field pea (cv. Radley)): 2.4 a g/plant
- Root/foot rot severity ([1]; Field pea (cv. Radley)): 3.4 a 0-9
- Dry wt. ([1]; Garden Pea (cv. Green Arrow)): 0.15 a g/plant
- Emergence ([1]; Garden Pea (cv. Green Arrow)): 89.2 a %
- Fresh wt. ([1]; Garden Pea (cv. Green Arrow)): 1.3 a g/plant
- Root/foot rot severity ([1]; Garden Pea (cv. Green Arrow)): 2.1 b 0-9
- Dry wt. ([1]; Marigold (cv. Lemondrop)): 0.06 a g/plant
- Emergence ([1]; Marigold (cv. Lemondrop)): 75.2 a %
- Fresh wt. ([1]; Marigold (cv. Lemondrop)): 0.5 a g/plant
- Root/foot rot severity ([1]; Marigold (cv. Lemondrop)): 2.1 a 0-9
- Dry wt. ([1]; Pepper (cv. California Wonder)): 0.01 a g/plant
- Emergence ([1]; Pepper (cv. California Wonder)): 70.5 b %
- Fresh wt. ([1]; Pepper (cv. California Wonder)): 0.1 a g/plant
- Root/foot rot severity ([1]; Pepper (cv. California Wonder)): 1.3 a 0-9
- Dry wt. ([1]; Sugar beet (cv. US H2O)): 0.29 a g/plant
- Emergence ([1]; Sugar beet (cv. US H2O)): 57.5 a %
- Fresh wt. ([1]; Sugar beet (cv. US H2O)): 4.4 a g/plant
- Root/foot rot severity ([1]; Sugar beet (cv. US H2O)): 1.6 b 0-9
- Dry wt. ([1]; Table beet (cv. Ruby Queen)): 0.01 a g/plant
- Emergence ([1]; Table beet (cv. Ruby Queen)): 78.5 a %
- Fresh wt. ([1]; Table beet (cv. Ruby Queen)): 0.1 a g/plant
- Root/foot rot severity ([1]; Table beet (cv. Ruby Queen)): 2.3 b 0-9
- Dry wt. ([1]; Tomato (cv. Bush Beefsteak)): 0.01 a g/plant
- Emergence ([1]; Tomato (cv. Bush Beefsteak)): 87.8 a %
- Fresh wt. ([1]; Tomato (cv. Bush Beefsteak)): 0.1 a g/plant
- Root/foot rot severity ([1]; Tomato (cv. Bush Beefsteak)): 1.5 a 0-9
- Emergence ([2]; 1998, Carneval): 88.1 a
- Yield ([2]; 1998, Carneval): 6122 a
- Emergence ([2]; 1998, Radley): 91.9 a
- Yield ([2]; 1998, Radley): 5110 a
- Emergence ([2]; 1999, Carneval): 90.3 a
- Yield ([2]; 1999, Carneval): 4986 a
- Emergence ([2]; 1999, Radley): 81.0 a
- Yield ([2]; 1999, Radley): 4315 a
- Dry wt. [3]: 0.32 a g/plant
- Emergence [3]: 67.5 a %
- Fresh wt. [3]: 3.1 a g/plant
- Root rot severity [3]: 2.3 a 0-9
- Dry wt. ([4]; Field pea (cv. Radley)): 0.23 a g/plant
- Emergence ([4]; Field pea (cv. Radley)): 68.1 a %
- Fresh wt. ([4]; Field pea (cv. Radley)): 2.2 a g/plant
- Root rot severity ([4]; Field pea (cv. Radley)): 3.2 ab 0-9
- effect on dry weight compared to the nontreated control ([4]; greenhouse experiments): Neither ACM941 nor thiram fungicide showed an increase in dry weight
